Reference: patent US6794402B2, “Bicyclic cyclohexylamines and their use as NMDA receptor antagonists” (Warner-Lambert Company, priority 2000, dated 2004)
pIC50: −log10 of the molar value. Counter-ions that a name gives are not always drawn.

How the values were obtained:
[1] = biological target: T1, [3H]ifenprodil binding site, rat forebrain membranes (Rattus norvegicus, UniProt P35439+Q00960); test: [3H]Ifenprodil binding assay; details: 4 nM [3H]-ifenprodil, 2 hours at room temperature
T1 construct: membrane fraction was prepared from frozen adult rat forebrains; tissue Zivic-Miller Laboratories, Inc; host or cells: adult rat forebrain, washed buffy coat membrane fraction
Protocol: All buffers and reagents used in assay incubations or to dissolve drugs were prepared using water purified through a Milli-Q reverse osmosis system (Millipore Corp, Bedford, Mass.) and treated with UV emissions. Prior to use in the assays, buffers were further filtered through a sterile Corning filtration unit (Corning Glass Works, Corning, N.Y.) containing a 0.2-micron filter. Buffer used to rinse the membranes on the assay filters was prepared with purified water, but was not refiltered and was stored no longer than 5 days. Stock solutions of the drugs (usually 10 mM) were dissolved in 20 mM HEPES-KOH buffer pH 7.4 (assay buffer) with the addition of 1 to 5 μL of glacial AcOH, if needed to keep them in solution. For eliprodil the stock solution was buffered with the addition of 10% DMSO. All subsequent dilutions from stock were made in buffer.
An extensively washed buffy coat membrane fraction was prepared from frozen adult rat forebrains (Zivic-Miller Laboratories, Inc., Zelienople, Pa.) as described previously (Coughenour L. L., Cordon, J. J., J. Pharmacol. Exp. Ther., 1997;280:584-592) and stored at −80° C. On the day of the assay, pellets were resuspended in 35 mL of assay buffer at pH 7.4 using a Polytron setting 6. After incubation at 37° C. for 30 minutes in a shaking water bath, the homogenate was centrifuged 40,000×g for 10 minutes at 4° C. The pellets were resuspended in fresh buffer and centrifuged 3 more times before final suspension for use in the assay.
[^3H]Ifenprodil Binding. Triplicate incubations were carried out in a volume of 0.5 mL in 1.3 mL polypropylene tubes (Marsh Biomedical Products Inc., Rochester, N.Y.) for 2 hours at room temperature. Incubations contained test agents, membranes (100-200 μg protein) and 4 nM[^3H]-ifenprodil in 20 mM HEPES-KOH buffer, pH 7.4 (assay buffer). Assays were started by addition of the membranes. Bound radioligand was separated by filtration under reduced pressure using a Tomtec Mach II, 96-well cell harvester (Tomtec Inc., Orange, Colo.). Filtration was through Whatman GF/B glass fiber filters (Whatman Ltd, Maidstone, England), which had been soaked for at least 15 minutes in 0.3% polyethylenimine and allowed to air dry. The filters were rinsed with 3 mL of ice cold assay buffer within 6 seconds. Air was allowed to pass through the filters for an additional 10 seconds to remove residual moisture. The filter mat was supported on a cold (−20° C.) teflon support, and filters from individual wells were separated and placed in Mini Poly-Q vials (Beckman Instruments Inc., Fullerton, Calif.) and filled with 4 mL of scintillation cocktail (Beckman Ready Protein^+). Radioactivity retained on the filter was determined by liquid scintillation spectrophotometry. Nonspecific binding was defined as the binding in the presence of 1 mM ifenprodil. Specific binding was 90%.
Data analysis. Binding curves were statistically analyzed for a best one or two site competition fit using GraphPad Prism software (GraphPad Software Inc., San Diego, Calif.). The normalized data was fit by nonweighted nonlinear regression to either [formula]
Control data was entered as 100%, and no parameters were constrained. Inhibition curves were compared by ANOVA with post test comparisons of the logIC50 using Dunnett's multiple comparisons post test or Student's nonpaired, two-tailed t-test (GraphPad InStat software).

T1 sequence (Q00960 27-1482, other chains not shown): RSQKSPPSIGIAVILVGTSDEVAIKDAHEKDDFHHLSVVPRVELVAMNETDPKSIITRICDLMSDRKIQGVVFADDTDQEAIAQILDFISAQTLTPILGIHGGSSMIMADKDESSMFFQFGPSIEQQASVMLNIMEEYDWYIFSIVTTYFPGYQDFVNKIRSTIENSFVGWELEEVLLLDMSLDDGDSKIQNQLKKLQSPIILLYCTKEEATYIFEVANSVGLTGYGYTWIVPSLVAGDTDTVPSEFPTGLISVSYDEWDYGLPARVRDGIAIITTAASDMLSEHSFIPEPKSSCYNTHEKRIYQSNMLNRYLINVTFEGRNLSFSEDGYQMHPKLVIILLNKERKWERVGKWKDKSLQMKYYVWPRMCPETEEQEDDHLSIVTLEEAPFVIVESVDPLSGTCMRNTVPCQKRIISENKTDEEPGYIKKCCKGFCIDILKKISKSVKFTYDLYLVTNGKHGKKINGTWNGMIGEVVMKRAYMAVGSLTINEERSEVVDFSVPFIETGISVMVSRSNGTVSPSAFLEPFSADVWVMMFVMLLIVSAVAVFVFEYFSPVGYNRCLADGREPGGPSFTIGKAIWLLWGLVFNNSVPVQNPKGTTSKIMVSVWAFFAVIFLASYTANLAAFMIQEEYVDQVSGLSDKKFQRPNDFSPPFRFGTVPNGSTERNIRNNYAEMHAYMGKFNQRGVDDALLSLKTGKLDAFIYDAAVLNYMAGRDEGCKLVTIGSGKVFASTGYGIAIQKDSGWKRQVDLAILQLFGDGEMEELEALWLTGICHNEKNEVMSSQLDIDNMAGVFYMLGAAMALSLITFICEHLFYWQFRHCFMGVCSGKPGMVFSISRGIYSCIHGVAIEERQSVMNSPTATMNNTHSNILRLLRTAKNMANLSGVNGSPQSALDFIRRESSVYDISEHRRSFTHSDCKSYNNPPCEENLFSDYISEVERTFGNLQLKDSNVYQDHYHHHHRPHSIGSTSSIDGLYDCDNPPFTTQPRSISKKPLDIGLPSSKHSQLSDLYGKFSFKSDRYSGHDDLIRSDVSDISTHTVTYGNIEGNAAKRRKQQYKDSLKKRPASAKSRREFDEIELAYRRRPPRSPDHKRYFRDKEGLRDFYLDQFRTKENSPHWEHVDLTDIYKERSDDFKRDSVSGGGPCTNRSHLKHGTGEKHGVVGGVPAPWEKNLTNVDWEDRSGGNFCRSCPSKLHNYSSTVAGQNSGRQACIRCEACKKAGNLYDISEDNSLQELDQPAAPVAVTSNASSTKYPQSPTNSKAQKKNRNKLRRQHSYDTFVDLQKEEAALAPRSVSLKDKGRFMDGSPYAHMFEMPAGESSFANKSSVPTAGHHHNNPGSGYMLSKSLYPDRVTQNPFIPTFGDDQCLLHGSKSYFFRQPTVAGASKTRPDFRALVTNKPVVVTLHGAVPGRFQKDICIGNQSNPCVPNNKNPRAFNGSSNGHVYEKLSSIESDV

Row | Compound | melting point [°C] | pIC50 [1]
1 | O=c1[nH]c2ccc([C@H]3CC[C@H](NCCCc4ccc(F)cc4)CC3)cc2[nH]1 (as salt: HCl) [Example 62, 5-{trans-4-[3-(4-Fluorophenyl)propylamino]cyclohexyl}-1,3-dihydrobenzoimidazol-2-one] | 336 to 339 | 
2 | O=c1[nH]c2ccc([C@H]3CC[C@H](N(CCCc4ccc(F)cc4)Cc4ccoc4)CC3)cc2o1 (as salt: HCl) [Example 31, 6-(trans-4-{[3-(4-Fluorophenyl)propyl]furan-3-ylmethylamino}cyclohexyl)-3H-benzoxazol-2-one] | 225 to 227 | 
3 | CC(C)Cc1ccc(CCCN(C)[C@H]2CC[C@H](c3ccc4[nH]c(=O)oc4c3)CC2)cc1 (as salt: HCl) [Example 56, 6-(trans-4-{[3-(4-Isobutylphenyl)propyl]methylamino}cyclohexyl)-3H-benzoxazol-2-one] | 162 to 165 | 
4 | CN(CCCc1ccc(F)cc1)[C@H]1CC[C@@H](c2ccc3[nH]c(=O)oc3c2)CC1 [Example 19, 6-(cis-4-{[3-(4-Fluorophenyl)propyl]methylamino}cyclohexyl)-3H-benzoxazol-2-one] |  | 6.73
5 | CN(CCCc1nccs1)[C@H]1CC[C@H](c2ccc3[nH]c(=O)oc3c2)CC1 [Example 59, 6-{trans-4-[Methyl(3-thiazol-2-ylpropyl)amino]cyclohexyl}-3H-benzoxazol-2-one] |  | 6.50
6 | CN(CCCc1ccc(F)cc1)[C@H]1CC[C@H](c2ccc3[nH]c(=O)[nH]c3c2)CC1 [Example 63, 5-(trans-4-{[3-(4-Fluorophenyl)propyl]methylamino}cyclohexyl)-1,3-dihydrobenzoimidazol-2-one] |  | 8.70
7 | CN(CCCc1ccc(F)c(F)c1F)[C@H]1CC[C@H](c2ccc3[nH]c(=O)oc3c2)CC1 [Example 55, 6-(trans-4-{[3-(2,3,4-Trifluorophenyl)propyl]methylamino}cyclohexyl)-3H-benzoxazol-2-one] |  | 8.30
8 | NC(=O)CN(CCCc1ccc(F)cc1)[C@H]1CC[C@H](c2ccc3[nH]c(=O)oc3c2)CC1 [Example 34, 2-{[3-(4-Fluorophenyl)propyl]-[4-(2-oxo-2,3-dihydro-benzoxazol-6-yl)-cyclohexyl]amino}acetamide] |  | 6.82
9 | CC(C)c1ccc(CCCN(C)[C@H]2CC[C@H](c3ccc4[nH]c(=O)oc4c3)CC2)cc1 [Example 53, 6-(trans-4-{[3-(4-Isopropylphenyl)propyl]methylamino}cyclohexyl)-3H-benzoxazol-2-one] |  | 8.70

Continued, values first:

Row | melting point [°C] | pIC50 [1] | Compound
10 | 246 to 248 |  | CN(CCCc1ccsc1)[C@H]1CC[C@H](c2ccc3[nH]c(=O)oc3c2)CC1 (as salt: HCl) [Example 52b, 6-[trans-4-{[3-(3-Thiophen-3-yl)propyl]methylamino}cyclohexyl)-3H-benzoxazol-2-one]
11 |  | 8.05 | CN(CCCc1ccccc1F)[C@H]1CC[C@H](c2ccc3[nH]c(=O)oc3c2)CC1 [Example 46b, 6-(trans-4-{[3-(2-Fluorophenyl)propyl]methylamino}cyclohexyl)-3H-benzoxazol-2-one]
12 |  | 7.17 | Cc1ccc(CCCN(C)[C@H]2CC[C@H](c3ccc4[nH]c(=O)oc4c3)CC2)c(C)c1 [Example 41b]
13 |  | 7.25 | Cc1cc(F)ccc1CCCN(C)C1CCC(c2ccc3[nH]c(=O)oc3c2)CC1 (stereo in doubt) [Example 43b, 6-(trans-{4-[Methyl(4-fluoro-2-methylphenylpropyl)amino]cyclohexyl})-3H-benzoxazol-2-one]
14 |  | 7.85 | CN(CCCc1ccc(F)cc1F)[C@H]1CC[C@H](c2ccc3[nH]c(=O)oc3c2)CC1 [Example 24b, 6-(trans-4-{[3-(2,4-Difluorophenyl)propyl]methylamino}cyclohexyl)-3H-benzoxazol-2-one]
15 |  | 6.26 | CN(CC#Cc1ccccc1)[C@H]1CC[C@H](c2ccc3[nH]c(=O)oc3c2)CC1 [Example 51b, 6-(trans-{4-[Methyl(3-phenyl-prop-2-ynyl)amino]cyclohexyl})-3H-benzoxazol-2-one]
